The results in this text go back to patent publication US7767665B2, “1,3-benzothiazinone derivatives and use thereof” (Takeda Pharmaceutical Company Limited, priority 2001, dated 2010).

The test system of data set [1] is primary heart muscle cells from newborn rats. Nature of the data set: Inhibitory activity on heart muscle cell apoptosis (serum-free culture, viable cell number by WST-8). Particulars: Rattus norvegicus, 96 h; mean of three independent experiments; concentration required to increase the mean viable cell number by 50% as compared with that in the absence of test compounds; serum-free Medium 199, 4 days. It counts as cell-based, Wister rats. The source says:
Inhibitory Activity on Heart Muscle Cell Apoptosis
Newborn rats (within 1 day afterbirth) were obtained from pregnant Wister rats purchased from Charles River, anesthetized under ether, and sterilized with 70% ethanol, and then their hearts were excised with tweezers. The excised hearts were washed with a phosphate-buffered physiological saline (T900; Takara) and cut into pieces with surgical scissors. These tissue pieces were washed 4 to 5 times with a phosphate-buffered physiological saline to remove a majority of blood-derived non-heart muscle cells. To the tissue pieces derived from 10 newborns, 5 ml of enzyme solution (1.25 mg trypsin (Difco) and 0.25 mg collagenase (Sigma) per ml of phosphate-buffered saline (PBS)) was added and the mixture was stirred with a stirrer at 37° C. for 15 minutes. Another 2.5 ml enzyme solution was then added twice repeatedly at a 15-minutes interval. Then, Medium 199 (Gibco) containing 10% fetal calf serum (Biowiker) was added in a half volume of the enzyme solution to terminate the enzyme reaction. The cells were filtered through a Cell Strainer (Falcon) and then centrifuged at 400×g for 5 minutes, whereby the cells were collected.
The cells thus collected from 10 newborns were suspended in 50 ml Medium 199 containing 10% fetal calf serum, plated onto 100 mm Petri dishes (Iwaki) in a volume of 10 ml/dish and cultured for 1 hour in a CO2 incubator set at 5% CO2 and 37° C. The cells were then recovered, filtered through a Cell Strainer and centrifuged at 400×g for 5 minutes to collect the primary heart muscle cells derived from newborn rats.
Then, the heart muscle cells from 10 newborn rats were suspended in 2 ml low-isotonic solution (prepared by dissolving 8.29 g NH4Cl, 1.0 g KHCO3, 37 mg EDTA/2Na (ethylenediaminetetraacetic acid disodium) (Dojindo) in 1 L of water) and left for 3 minutes to disrupt erythrocytes. After 10 ml Medium 199 containing 10% fetal calf serum was added thereto, the primary heart muscle cells from newborn rats were collected by centrifugation at 400×g for 5 minutes. The cells were suspended in Medium 199 containing 10% fetal calf serum and then filtered through a cell strainer. After 0.3% trypan blue was added to, and mildly mixed with, an aliquot of the resulting cell suspension, the number of heart muscle cells was counted on an erythrocyte counting plate.
The primary heart muscle cells from newborn rats were suspended at a density of 3×10^6 cells/ml in Medium 199 containing 10% fetal calf serum, put onto a 96-well plate in a volume of 0.1 ml/well, and then cultured in a CO2 incubator set at 5% CO2 and 37° C. After the plate was stirred with a micromixer (Taiyo Kagaku Kogyo), the medium was exchanged 3 times with serum-free Medium 199, and then test compounds were added thereto. The cells were cultured for additional 4 days to induce apoptosis. Then, fetal calf serum was added thereto at a concentration of 10%, and the cells were further cultured for about 17 hours in a CO2 incubator set at 5% CO2 and 37° C. Finally, the number of viable cells was determined with Cell Counting Kit (Dojindo) using WST-8 (2-(2-methoxy-4-nitrophenyl)-3-(4-nitrophenyl)-5-(2,4-disulfophenyl)-2H-tetrazolium, monosodium salt) as the coloring substrate to determine the inhibition of the heart muscle cell apoptosis.
The above-mentioned experiment was triplicated in an independent manner.
The Mean minimal effective concentration (±SD) was shown for each test compound (Compounds 1 to 5 obtained in Reference Examples) in Table 1. In Table 1, the minimal effective concentration is defined as the concentration required to increase the mean viable cell number by 50% as compared with that in the absence of test compounds.
(Tetrazolium assays rely on reduction of a dye to a coloured formazan, in cell work by metabolically active cells.)

Usually melting point stands for the temperature, or range, at which the solid turns liquid. As usually defined, the minimal effective concentration is the lowest level tested that produced the effect sought. The low end stands for an effect from little substance, the high end for a need for much substance. Regarding `COc1cccc(-c2nc(=O)c3ccccc3s2)n1` [Example 56, 2-(6-Methoxy-2-pyridyl)-4H-1,3-benzothiazine-4-one], the melting point lay within 226 to 226.1 °C. In data set [1], this compound registered a minimal effective concentration of 0.039 µM.

`O=c1nc(-c2cccc(OCc3ccccc3)n2)sc2ccccc12` [Example 57, 2-[6-(Benzyloxy)-2-pyridyl]-4H-1,3-benzothiazine-4-one] showed a melting point of 240.9 to 241 °C. In data set [1], this compound returned a minimal effective concentration of 0.033 µM.

With `CCCOc1cccc(-c2nc(=O)c3ccccc3s2)n1` [Example 58, 2-(6-Propoxy-2-pyridyl)-4H-1,3-benzothiazine-4-one], the melting point lay within 138.3 to 140 °C. In addition, the minimal effective concentration in data set [1] came out at 0.091 µM.

Turning to `CCC[S+]([O-])c1cccc(-c2nc(=O)c3ccccc3s2)n1` (stereo not drawn) [Example 60, 2-(6-Propylsulfinyl-2-pyridyl)-4H-1,3-benzothiazine-4-one], the melting point lay in the range of 174.8 to 175.4 °C. The minimal effective concentration in data set [1] amounted to 0.019 µM.

For the compound `CCCS(=O)(=O)c1cccc(-c2nc(=O)c3ccccc3s2)n1` [Example 61, 2-(6-Propylsulfonyl-2-pyridyl)-4H-1,3-benzothiazine-4-one], the melting point was in the range of 173.8 to 174.5 °C. In addition, the minimal effective concentration in data set [1] is 0.01 µM.

`Cc1ccc([S+]([O-])c2cccc(-c3nc(=O)c4ccccc4s3)n2)cc1` (stereo not drawn) [Example 63, 2-{6-[(4-Methylphenyl)sulfinyl]-2-pyridyl}-4H-1,3-benzothiazine-4-one] had a melting point of 228 to 228.2 °C. The minimal effective concentration in data set [1] worked out at 0.046 µM.

`Cc1ccc(S(=O)(=O)c2cccc(-c3nc(=O)c4ccccc4s3)n2)cc1` [Example 64, 2-{6-[(4-Methylphenyl)sulfonyl]-2-pyridyl}-4H-1,3-benzothiazine-4-one]: the melting point was 219.6 °C (dec.). This compound also had a minimal effective concentration in data set [1] of 0.052 µM.

Consider `COCOCc1cccc(-c2nc(=O)c3ccccc3s2)n1` [Example 65, 2-[(6-Methoxymethoxymethyl)-2-pyridyl]-4H-1,3-benzothiazine-4-one], for which the melting point lay in the range of 159.6 to 159.8 °C. The minimal effective concentration in data set [1] worked out at 0.045 µM.

As for `O=C(O)CCOCCCc1cccc(-c2nc(=O)c3ccccc3s2)n1` [Example 67, 3-{3-[6-(4-Oxo-4H-1,3-benzothiazin-2-yl)-2-pyridyl]propoxy}propionic acid], the melting point lay within 141 to 142 °C. In data set [1], this compound registered a minimal effective concentration of 0.031 µM.

For `CSc1cc(-c2nc(=O)c3ccccc3s2)ccn1` [Example 68, 2-(2-Methylthio-4-pyridyl)-4H-1,3-benzothiazine-4-one], the melting point lay in the range of 173.4 to 173.5 °C. In data set [1], this compound returned a minimal effective concentration of 0.018 µM.

Take `COc1cc(-c2nc(=O)c3ccccc3s2)ccn1` [Example 70, 2-(2-Methoxy-4-pyridyl)-4H-1,3-benzothiazine-4-one]: the melting point lay in the range of 148.8 to 150.5 °C. For the same compound, in data set [1], the minimal effective concentration amounted to 0.017 µM.

`O=c1nc(-c2ccnc(N3CCOCC3)c2)sc2ccccc12` [Example 73, 2-(2-Morpholinyl-4-pyridyl)-4H-1,3-benzothiazine-4-one]: the melting point lay within 157 to 158 °C. This compound gave a minimal effective concentration in data set [1] of 0.024 µM.

`O=c1nc(-c2ccnc(Cl)c2)sc2ccccc12` [Example 76, 2-(2-Chloro-4-pyridyl)-4H-1,3-benzothiazine-4-one] had a melting point of 177.8 to 178.4 °C. For the same compound, the minimal effective concentration in data set [1] was found to be 0.036 µM.

Regarding `COC(=O)c1ccccc1Sc1cc(-c2nc(=O)c3ccccc3s2)ccn1` [Example 77, methyl 2-{[4-(4-oxo-4H-1,3-benzothiazin-2-yl)-2-pyridyl]thio}benzoate], the melting point fell in the range of 137 to 137.9 °C. Besides, in data set [1], the minimal effective concentration was determined as 0.039 µM.

`O=C(O)CCc1cccc(-c2nc(=O)c3ccccc3s2)n1` [Example 79, 3-[6-(4-Oxo-4H-1,3-benzothiazin-2-yl)-2-pyridyl]propionic acid]: the melting point lay in the range of 243.2 to 243.5 °C. For the same compound, the minimal effective concentration in data set [1] was 0.061 µM.

`CC(C)(C)OC(=O)c1cccc(-c2nc(=O)c3ccccc3s2)n1` [Example 80, tert-Butyl 6-(4-oxo-4H-1,3-benzothiazin-2-yl)-2-pyridinecarboxylate] gave a melting point of 185 to 185.5 °C. Moreover, in data set [1], the minimal effective concentration was determined as 0.035 µM.

`O=C(O)c1cccc(-c2nc(=O)c3ccccc3s2)n1` [Example 81, 6-(4-Oxo-4H-1,3-benzothiazin-2-yl)-2-pyridinecarboxylic acid] gave a melting point of 260.2 to 260.5 °C. This compound registered a minimal effective concentration in data set [1] of 0.012 µM.

Compound `O=C(NCC(F)(F)F)c1cccc(-c2nc(=O)c3ccccc3s2)n1` [Example 82, 6-(4-Oxo-4H-1,3-benzothiazin-2-yl)-N-(2,2,2-trifluoroethyl)-2-pyridinecarboxamide] showed a melting point of 242.6 to 244.2 °C. In data set [1], this compound returned a minimal effective concentration of 0.011 µM.

`COCCNC(=O)c1cccc(-c2nc(=O)c3ccccc3s2)n1` [Example 83, N-(2-Methoxyethyl)-6-(4-oxo-4H-1,3-benzothiazin-2-yl)-2-pyridinecarboxamide]: the melting point lay within 175.5 to 176.7 °C. Further, the minimal effective concentration in data set [1] amounted to 0.027 µM.

`O=c1nc(-c2ccccn2)sc2cc(C(F)(F)F)ccc12` [Example 85, 2-(2-Pyridyl)-7-trifluoromethyl-4H-1,3-benzothiazine-4-one] showed a melting point of 175.8 to 177 °C. The minimal effective concentration in data set [1] stood at 0.04 µM.

In the case of `O=C(O)CCOCCCc1ccc(-c2nc(=O)c3ccccc3s2)nc1` [Example 99, 3-{3-[6-(4-Oxo-4H-1,3-benzothiazin-2-yl)-3-pyridyl]propoxy}propionic acid], the melting point is 145.2 to 146.6 °C. In data set [1], this compound displayed a minimal effective concentration of 0.043 µM.

In turn, `CN(C)/C=N/S(=O)(=O)CC(C)(C)COc1cccc(-c2nc(=O)c3ccccc3s2)n1` [Example 100, N,N-(Dimethylaminomethylene)-2,2-dimethyl-3-{[6-(4-oxo-4H-1,3-benzothiazin-2-yl)-2-pyridyl]oxy}-1-propanesulfonamide] had a melting point of 174.5 to 175.3 °C. In data set [1], this compound had a minimal effective concentration of 0.036 µM.

`O=C(O)CCOCCCc1ccnc(-c2nc(=O)c3ccccc3s2)c1` [Example 102, 3-[3-[2-(4-Oxo-4H-1,3-benzothiazin-2-yl)-4-pyridyl]propoxy]propanoic acid]: the melting point is 153.8 to 153.9 °C. In data set [1], this compound gave a minimal effective concentration of 0.036 µM.

Take `CCCCN(C)C(=O)c1cccc(-c2nc(=O)c3ccccc3s2)n1` [Example 103, N-Butyl-N-methyl-6-(4-oxo-4H-1,3-benzothiazin-2-yl)-2-pyridinecarboxamide]: the melting point was in the range of 80 to 81.6 °C. For the same compound, the minimal effective concentration in data set [1] was determined as 0.042 µM.

Turning to `O=C(c1cccc(-c2nc(=O)c3ccccc3s2)n1)N1CCCC1` [Example 104], the melting point was 232 to 234 °C. In data set [1], this compound had a minimal effective concentration of 0.019 µM.

In the case of `CCN(CC)C(=O)c1cccc(-c2nc(=O)c3ccccc3s2)n1` [Example 105, N,N-Diethyl-6-(4-oxo-4H-1,3-benzothiazin-2-yl)-2-pyridinecarboxamide], the melting point is 194 to 194.3 °C. Besides, in data set [1], the minimal effective concentration was 0.028 µM.

As for `CC(C)(C)OC(=O)NCCCCCCNC(=O)c1cccc(-c2nc(=O)c3ccccc3s2)n1` [Example 106, tert-Butyl [[[6-(4-oxo-4H-1,3-benzothiazin-2-yl)-2-pyridyl]carbonyl]amino]hexylcarbamate], the melting point is 145.1 to 145.4 °C. Besides, the minimal effective concentration in data set [1] came out at 0.052 µM.
